From ChEMBL document CHEMBL6087456 (J Med Chem, 2025)
Values after ≈ are worked out from the molar mass of the structure shown.

Tests used:
[1] = molecular target: Dihydroorotate dehydrogenase (quinone), mitochondrial (Homo sapiens, UniProt Q02127); experiment: Inhibition of C-terminal His6-tagged recombinant human DHODH (29 to 395 residues) N-terminally truncated soluble domain extracted from Escherichia coli phage resistant BL21-DE3 using CoQD/DHA/DCIP as substrates
[2] = test system: Plasmodium falciparum; experiment: Antiparasitic activity against asexual blood stage Plasmodium falciparum 3D7 incubated for 72 hrs by SYBR Green assay; assay type: functional, organism-based; settings: 3D7, 72 h
[3] = Kinetic solubility of compound at pH 6.5 measured after 30 mins by nephelometry; assay type: physicochemical; settings: buffer, pH 6.5, read-out: Kinetic_solubility
[4] = Metabolic stability in human liver microsomes assessed as intrinsic clearance at 0.5 uM incubated for 60 mins in presence of NADPH by tandem quadrupole-Time of Flight MS; assay type: ADME, Microsome; settings: 1 h
[5] = molecular target: Albumin (Homo sapiens, UniProt P02768); experiment: Protein binding to albumin (unknown origin) in ALBUMAX medium; assay type: ADME; settings: read-out: PB (converted)
[6] = Metabolic stability in human hepatocytes assessed as intrinsic clearance at 0.5 uM measured per 1.5 million cells incubated for 240 mins by tandem quadrupole-Time of Flight MS; assay type: ADME, cell-based, Hepatocyte; settings: 4 h
[7] = Metabolic stability in Sprague-Dawley rat hepatocytes assessed as intrinsic clearance at 0.5 uM measured per 0.5 million cells incubated for 240 mins by tandem quadrupole-Time of Flight MS; assay type: ADME, cell-based, Hepatocyte; settings: 4 h
[8] = Ratio of drug concentration in Sprague-Dawley rat brain to plasma at 1 uM measured for 5 to 60 mins by LCMS analysis; assay type: ADME, cell-free; settings: time 5-60 min
[9] = Cmax in overnight-fasted male Sprague-Dawley rat at 3 mg/kg, po or 1 mg/kg, iv measured upto 72 hrs by LCMS analysis; assay type: ADME, organism-based; settings: in vivo
[10] = Oral bioavailability in overnight-fasted male Sprague-Dawley rat at 3 mg/kg measured upto 72 hrs by LCMS analysis; assay type: ADME, organism-based; settings: in vivo
[11] = Oral absorption in overnight-fasted male Sprague-Dawley rat at 3 mg/kg measured upto 72 hrs by LCMS analysis; assay type: ADME, organism-based; settings: in vivo
[12] = molecular target: T1, Dihydroorotate dehydrogenase (quinone), mitochondrial (Plasmodium falciparum (isolate 3D7), UniProt Q08210); experiment: Inhibition of N-terminal His6-tagged recombinant Plasmodium falciparum DHODH (158 to 569 residues) N-terminally truncated soluble domain extracted from Escherichia coli phage resistant BL21-DE3 using CoQD/DHA/DCIP as substrates
T1 sequence (Q08210 whole entry): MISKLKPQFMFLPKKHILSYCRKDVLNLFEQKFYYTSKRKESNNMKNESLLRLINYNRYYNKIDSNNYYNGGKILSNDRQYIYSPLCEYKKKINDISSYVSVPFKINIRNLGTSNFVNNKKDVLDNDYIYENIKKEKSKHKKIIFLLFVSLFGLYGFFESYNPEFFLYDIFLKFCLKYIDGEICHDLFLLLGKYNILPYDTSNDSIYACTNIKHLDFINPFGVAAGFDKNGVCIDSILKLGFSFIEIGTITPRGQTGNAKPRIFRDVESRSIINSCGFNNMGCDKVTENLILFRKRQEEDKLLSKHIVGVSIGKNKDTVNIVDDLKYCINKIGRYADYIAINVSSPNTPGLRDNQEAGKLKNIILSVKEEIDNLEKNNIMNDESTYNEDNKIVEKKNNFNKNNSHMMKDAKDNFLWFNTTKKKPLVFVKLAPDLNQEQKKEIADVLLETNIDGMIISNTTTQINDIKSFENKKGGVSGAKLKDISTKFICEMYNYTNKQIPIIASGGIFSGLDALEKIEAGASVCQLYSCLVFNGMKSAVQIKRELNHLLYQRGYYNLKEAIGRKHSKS

[13] = Selectivity index, ratio of IC50 for N-terminal His6-tagged recombinant Plasmodium falciparum DHODH (158 to 569 residues) N-terminally truncated soluble domain extracted from Escherichia coli phage resistant BL21-DE3 to IC50 for C-terminal His6-tagged recombinant Plasmodium vivax DHODH (158 to …
[14] = Volume of distribution at steady state in overnight-fasted male Sprague-Dawley rat at 3 mg/kg, po or 1 mg/kg, iv measured upto 72 hrs by LCMS analysis; assay type: ADME, organism-based; settings: in vivo
[15] = Cytotoxicity against human HepG2 cells by Cell Titer Glo assay; assay type: toxicity, cell-based
[16] = Cytotoxicity against human Jurkat cells by Cell Titer Glo assay; assay type: toxicity, cell-based
[17] = Plasma protein binding in human measured for 6 hrs by rapid equilibrium dialysis; assay type: ADME, cell-free
[18] = Plasma protein binding in rat measured for 6 hrs by rapid equilibrium dialysis; assay type: ADME, cell-free
[19] = Protein binding in human hepatocytes; assay type: ADME, cell-based, Hepatocyte; settings: read-out: PB (converted)
[20] = Half life in overnight-fasted male Sprague-Dawley rat at 3 mg/kg, po or 1 mg/kg, iv measured upto 72 hrs by LCMS analysis; assay type: ADME, organism-based; settings: in vivo
[21] = Drug excretion in Sprague-Dawley rat urine at 1 mg/kg, iv; assay type: ADME, organism-based; settings: read-out: Drug excretion
[22] = Permeability across apical to basal side in human Caco-2 cells; assay type: ADME, cell-based
[23] = molecular target: T2, Cytochrome P450 1A2 (Homo sapiens, UniProt P05177); experiment: Inhibition of CYP1A2 in human liver microsomes; assay type: ADME, Microsome
T2 sequence (P05177 whole entry): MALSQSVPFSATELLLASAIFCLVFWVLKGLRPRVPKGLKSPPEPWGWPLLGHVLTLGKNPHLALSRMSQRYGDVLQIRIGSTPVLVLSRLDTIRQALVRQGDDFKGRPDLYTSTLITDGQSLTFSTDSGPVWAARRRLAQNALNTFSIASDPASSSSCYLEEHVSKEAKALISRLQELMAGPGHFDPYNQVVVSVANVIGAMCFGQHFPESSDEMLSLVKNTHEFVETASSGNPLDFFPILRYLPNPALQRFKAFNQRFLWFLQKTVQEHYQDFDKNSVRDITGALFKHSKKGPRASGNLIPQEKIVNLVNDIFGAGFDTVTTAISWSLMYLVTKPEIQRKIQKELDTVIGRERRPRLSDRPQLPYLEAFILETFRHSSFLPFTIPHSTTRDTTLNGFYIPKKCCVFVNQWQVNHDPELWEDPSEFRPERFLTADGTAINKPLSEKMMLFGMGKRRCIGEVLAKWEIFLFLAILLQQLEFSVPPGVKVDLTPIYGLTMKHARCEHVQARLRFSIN

[24] = molecular target: T3, Cytochrome P450 2B6 (Homo sapiens, UniProt P20813); experiment: Inhibition of CYP2B6 in human liver microsomes; assay type: ADME, Microsome
T3 sequence (P20813 whole entry): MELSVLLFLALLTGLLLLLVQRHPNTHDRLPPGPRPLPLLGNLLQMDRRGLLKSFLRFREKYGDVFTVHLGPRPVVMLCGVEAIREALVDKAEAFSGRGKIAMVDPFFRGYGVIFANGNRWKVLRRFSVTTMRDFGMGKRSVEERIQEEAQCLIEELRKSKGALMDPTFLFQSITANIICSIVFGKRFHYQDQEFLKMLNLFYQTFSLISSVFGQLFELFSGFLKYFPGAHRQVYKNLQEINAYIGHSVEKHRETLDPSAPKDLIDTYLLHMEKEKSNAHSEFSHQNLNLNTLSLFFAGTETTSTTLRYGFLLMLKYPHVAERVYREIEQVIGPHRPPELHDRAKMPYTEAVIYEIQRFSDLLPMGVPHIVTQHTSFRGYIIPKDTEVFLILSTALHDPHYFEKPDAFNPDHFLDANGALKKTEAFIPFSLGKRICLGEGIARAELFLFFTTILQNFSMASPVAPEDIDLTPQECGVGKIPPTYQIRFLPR

[25] = molecular target: Cytochrome P450 2D6 (Homo sapiens, UniProt P10635); experiment: Inhibition of CYP2D6 in human liver microsomes; assay type: ADME, Microsome
[26] = molecular target: Cytochrome P450 3A4 (Homo sapiens, UniProt P08684); experiment: Inhibition of CYP3A4 in human liver microsomes; assay type: ADME, Microsome
[27] = Half life in human; assay type: ADME
[28] = test system: Plasmodium falciparum; experiment: Antiparasitic activity against Plasmodium falciparum 3D7 assessed as parasitic reduction ratio at 10 times EC50 pretreated for 120 hrs followed by compound removal and replacement of media without compound measured after 28 days by cell killing assay; assay type: functional
[29] = test system: Plasmodium falciparum; experiment: Antiparasitic activity against ring-stage Plasmodium falciparum D10 transformed with yeast DHODH incubated for 72 hrs by SYBR Green assay; assay type: functional, organism-based; settings: D10, 72 h
[30] = Partition coefficient, log D of compound at pH 7.4 measured after 24 hrs by LCMS analysis; assay type: physicochemical; settings: octanol/water, pH 7.4, 24 h

Sequence of Dihydroorotate dehydrogenase (quinone), mitochondrial (Homo sapiens, UniProt Q02127) (Q02127 whole entry, the tested form may be a part): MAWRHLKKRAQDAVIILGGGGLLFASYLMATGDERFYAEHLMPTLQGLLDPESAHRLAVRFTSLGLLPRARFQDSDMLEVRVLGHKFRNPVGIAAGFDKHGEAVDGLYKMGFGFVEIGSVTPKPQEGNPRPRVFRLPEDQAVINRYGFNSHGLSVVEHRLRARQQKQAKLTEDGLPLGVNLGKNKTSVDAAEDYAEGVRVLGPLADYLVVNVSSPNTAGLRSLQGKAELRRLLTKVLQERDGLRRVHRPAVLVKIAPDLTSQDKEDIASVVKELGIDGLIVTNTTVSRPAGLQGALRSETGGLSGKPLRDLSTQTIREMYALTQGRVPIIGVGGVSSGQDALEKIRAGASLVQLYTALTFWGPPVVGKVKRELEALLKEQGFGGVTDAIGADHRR
Sequence of Albumin (P02768 whole entry): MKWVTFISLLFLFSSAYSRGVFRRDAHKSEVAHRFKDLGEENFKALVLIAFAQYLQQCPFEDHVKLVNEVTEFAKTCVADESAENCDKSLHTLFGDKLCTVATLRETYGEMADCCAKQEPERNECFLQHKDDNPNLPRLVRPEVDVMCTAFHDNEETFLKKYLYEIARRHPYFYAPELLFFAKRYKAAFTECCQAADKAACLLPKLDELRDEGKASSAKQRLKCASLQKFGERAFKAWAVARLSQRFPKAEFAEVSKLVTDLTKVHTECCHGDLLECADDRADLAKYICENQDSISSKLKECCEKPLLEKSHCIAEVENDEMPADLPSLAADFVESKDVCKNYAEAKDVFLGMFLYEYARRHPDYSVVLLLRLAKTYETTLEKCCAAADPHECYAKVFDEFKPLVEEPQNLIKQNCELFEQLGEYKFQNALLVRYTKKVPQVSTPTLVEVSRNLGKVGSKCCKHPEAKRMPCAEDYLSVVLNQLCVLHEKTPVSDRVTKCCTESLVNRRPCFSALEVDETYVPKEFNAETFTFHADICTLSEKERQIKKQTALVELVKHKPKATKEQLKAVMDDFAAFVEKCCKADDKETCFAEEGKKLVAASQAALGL
Sequence of Cytochrome P450 2D6 (P10635 whole entry): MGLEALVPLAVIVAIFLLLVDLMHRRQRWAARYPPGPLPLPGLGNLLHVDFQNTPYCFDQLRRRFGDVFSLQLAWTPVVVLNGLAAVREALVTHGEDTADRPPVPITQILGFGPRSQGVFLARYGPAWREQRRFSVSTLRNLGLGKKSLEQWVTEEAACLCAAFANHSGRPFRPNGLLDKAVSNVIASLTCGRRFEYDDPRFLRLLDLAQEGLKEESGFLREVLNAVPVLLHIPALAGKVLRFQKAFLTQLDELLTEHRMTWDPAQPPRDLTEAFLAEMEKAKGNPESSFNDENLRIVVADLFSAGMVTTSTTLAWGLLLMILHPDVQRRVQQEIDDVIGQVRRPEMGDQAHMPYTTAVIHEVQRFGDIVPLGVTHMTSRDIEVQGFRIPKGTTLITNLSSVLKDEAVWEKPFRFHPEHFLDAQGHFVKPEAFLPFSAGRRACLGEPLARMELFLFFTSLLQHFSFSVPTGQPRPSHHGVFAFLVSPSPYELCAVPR
Sequence of Cytochrome P450 3A4 (P08684 whole entry): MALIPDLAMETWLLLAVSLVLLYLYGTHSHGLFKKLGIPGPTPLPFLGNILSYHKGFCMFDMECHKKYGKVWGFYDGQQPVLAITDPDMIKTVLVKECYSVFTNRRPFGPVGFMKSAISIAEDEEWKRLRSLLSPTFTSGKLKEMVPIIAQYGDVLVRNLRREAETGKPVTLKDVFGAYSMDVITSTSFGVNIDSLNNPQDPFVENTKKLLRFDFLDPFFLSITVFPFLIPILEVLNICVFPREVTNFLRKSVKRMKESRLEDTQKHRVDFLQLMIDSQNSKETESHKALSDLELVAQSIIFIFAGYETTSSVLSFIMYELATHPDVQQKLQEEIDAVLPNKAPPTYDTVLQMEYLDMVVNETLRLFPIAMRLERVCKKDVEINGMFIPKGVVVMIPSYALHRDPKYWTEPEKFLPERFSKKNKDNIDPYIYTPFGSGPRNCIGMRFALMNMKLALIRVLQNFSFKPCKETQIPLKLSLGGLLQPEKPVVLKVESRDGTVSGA

| SMILES | IC50 [1] | EC50 [2] | solubility kinetic at 0.5 h [3] | intrinsic clearance (CLint) [4] | fraction unbound [5] | F [10] | Fa at 72 h [11] | IC50 [12] | CC50 [15] | CC50 [16] | PPB [17] | PPB [18] | fraction unbound [19] | dose excreted [21] | also measured |
| --- | --- | --- | --- | --- | --- | --- | --- | --- | --- | --- | --- | --- | --- | --- | --- |
| CCn1cc(C2CC2)c2c(Cc3ccc(C(F)(F)F)nc3)n(C)nc2c1=O | > 100 µM | 0.022 µM | 130 µM (≈ 48.9 µg/mL) | 9 µL/min/mg | 0.5 | 65% | 71% | – | – | – | – | – | – | – | CLH [6]: 1.2 µL/min; CLH [7]: 2.3 µL/min; BPR [8]: 0.65; Cmax [9]: 4.4 µM |
| CCOC(=O)c1nn(C)c(Cc2ccc(C(F)(F)F)nc2)c1C | > 100 µM | 0.19 µM | – | – | – | – | – | 0.36 µM | – | – | – | – | – | – | Ratio IC50 [13]: 4 |
| CCn1cc(C)c2c([C@H](O)c3ccc(C(F)(F)F)nc3)n(C)nc2c1=O | > 100 µM | 0.022 µM | 160 µM (≈ 58.6 µg/mL) | < 3 µL/min/mg | – | – | – | 0.074 µM | – | – | – | – | – | – | Vdss [14]: 2.76 L/kg |
| Cn1nc2c(=O)n(C3CC3)ncc2c1[C@](O)(c1cnc(C(F)(F)F)c(Cl)c1)C(F)(F)F | > 30 µM | 0.003 µM | 20 µM (≈ 9.36 µg/mL) | < 3 µL/min/mg | 0.319 | > 100% | 94% | – | > 20 µM | > 20 µM | 99.1% | 97.3% | 0.342 | < 1% | t1/2 [20]: 23 h; permeability [22]: Permeable; IC50 [23]: > 20 µM; IC50 [24]: > 20 µM; IC50 [25]: > 20 µM; IC50 [26]: > 20 µM |
| Cc1c(C2(c3ccc(C(F)(F)F)nc3)CC2)c[nH]c1C(=O)N[C@H](C)c1nc[nH]n1 | – | – | – | – | – | – | – | – | – | – | – | – | – | – | half-life [27]: > 100 h |
| CCc1nc(N)nc(N)c1-c1ccc(Cl)cc1 [PYRIMETHAMINE] | – | – | – | – | – | – | – | – | – | – | – | – | – | – | log(activity) [28]: 3.5 |
| CC[C@@](O)(c1cnc(C(F)(F)F)c(Cl)c1)c1c2cnn(C3CC3)c(=O)c2nn1C | > 30 µM | 0.003 µM | 25 µM (≈ 10.7 µg/mL) | < 3 µL/min/mg | 0.709 | 80% | 81% | – | > 20 µM | > 20 µM | 78.2% | 84.9% | – | < 1% | EC50 [29]: 3.8 µM |
| CC[C@@](N)(c1cnc(C(F)(F)F)c(Cl)c1)c1c2ncn(C3CC3)c(=O)c2nn1C | > 30 µM | 0.007 µM | 80 µM (≈ 34.1 µg/mL) | < 3 µL/min/mg | 0.703 | 79% | 64% | 0.038 µM | > 20 µM | > 20 µM | – | – | 0.589 | < 1% | logD [30]: 3.44; IC50 [23]: > 20 µM; IC50 [24]: > 20 µM; IC50 [25]: > 20 µM; IC50 [26]: > 20 µM |
| CC[C@@](O)(c1cnc(C(F)(F)F)c(Cl)c1)c1c2ccn(C3CC3)c(=O)c2nn1C | – | 0.001 µM | 40 µM (≈ 17.1 µg/mL) | < 3 µL/min/mg | 0.511 | – | 67% | – | – | – | 94% | 89.4% | 0.676 | – | logD [30]: 2.4; Vdss [14]: 1.22 L/kg |
